Measurements from article PMC3510080, “Identification of Compounds with Anti-Proliferative Activity against Trypanosoma brucei brucei Strain 427 by a Whole Cell Viability Based HTS Campaign” (PLoS Neglected Tropical Diseases, 2012).
Values after ≈ are worked out from the molar mass of the structure shown. Values joined by “and” are separate entries in the source; they are usually repeats but may differ in a detail not shown here. Identical values can stand only once. Like-named read-outs stand apart in the source and are kept apart here.

Key:
[1] = system: T.b. rhodesiense STIB900; assay: T. b. rhodesiense STIB900 assay (resazurin); SI versus L6 cells; format: cell-based, Trypanosoma brucei rhodesiense; conditions: for IC50: T.b. rhodesiense STIB900, 70 h, read-out: Compound activity T.R (IC50); for Selectivity Index T.R: relative to L6 cells
Experimental: (§1) L6 rat skeletal myoblasts, [29] were purchased from the American Type Culture Collection (ATCC, Rockville, MD, USA; ATCC number CRL 1458). This cell line was used for cytotoxicity testing to calculate an SI against T.b. rhodesiense and screened alongside the T.b. rhodesiense, P. falciparum, T. cruzi and L. donovani assays. L6 were also the host cells for the T. cruzi assay. Assays were performed in 96-well microtiter plates, each well containing 100 µl of RPMI 1640 medium supplemented with 1% L-glutamine (200 mM), 10% FCS, and 4000 L6 cells. Serial drug dilutions of eleven 3-fold dilution steps covering a range from 100 to 0.002 µg/ml were prepared. After 70 hours of incubation the plates were inspected under an inverted microscope to assure growth of the controls and sterile conditions. Ten µl of resazurin solution (resazurin, 12.5 mg in 100 ml double-distilled water) was then added to each well and the plates incubated for another 2 hours. Then the plates were read with a Spectramax Gemini XS microplate fluorometer (Molecular Devices Cooperation, Sunnyvale, CA, USA) using an excitation wavelength of 536 nm and an emission wavelength of 588 nm. Data was analysed using the microplate reader software Softmax Pro (Molecular Devices, USA). Podophyllotoxin was used as a positive control in the assay.
T.b. rhodesiense STIB900 stock was isolated in 1982 from a human patient in Tanzania and after several mouse passages cloned and adapted to axenic culture conditions. Fifty microliters of Minimum Essential Medium (MEM) supplemented with 25 mM HEPES, 1 g/l additional glucose, 1% MEM non-essential amino acids (100×), 0.2 mM 2-mercaptoethanol, 1 mM Na-pyruvate and 15% heat inactivated horse serum was added to each well of a 96-well microtiter plate. Serial drug dilutions of eleven 3-fold dilution steps covering a range from 100 to 0.002 µg/ml were prepared. Four thousand bloodstream form cells of T.b. rhodesiense STIB 900 in 50 µl were added to each well and the plate incubated at 37°C under a 5% CO2 atmosphere for 70 hours. Ten microlitres of resazurin solution (resazurin, 12.5 mg in 100 ml double-distilled water) was then added to each well and incubation continued for a further 2–4 hours. Plates were then read with a Spectramax Gemini XS microplate fluorometer (Molecular Devices, USA) using an excitation wavelength of 536 nm and an emission wavelength of 588 nm. Data was analysed using the microplate reader software Softmax Pro (Molecular Devices, USA). The drug melarsoprol was a positive control against T.b. rhodesiense.

[2] = system: L. donovani strain MHOM/ET/67/L82 axenic amastigotes; assay: L. donovani axenic amastigote fluorescence assay; SI versus L6 cells; format: cell-based, Leishmania donovani; conditions: for IC50: axenic amastigotes, 70 h, read-out: Compound activity L.D (IC50); for Selectivity Index L.D: relative to L6 cells
Experimental: as §1
Amastigotes of L. donovani strain MHOM/ET/67/L82 were grown in axenic culture at 37°C in SM medium at pH 5.4 supplemented with 10% heat-inactivated FCS under an atmosphere of 5% CO2 in air. One hundred µl of culture medium containing 10^5 amastigotes from axenic culture with or without a serial drug dilution were seeded in 96-well microtitre plates. Serial drug dilutions of eleven 3-fold dilution steps covering a range from 100 to 0.002 µg/ml were prepared. After 70 hours of incubation the plates were inspected under an inverted microscope to assure growth of the controls and sterile conditions. Ten µl of resazurin solution (12.5 mg resazurin dissolved in 100 ml distilled water) were then added to each well and the plates incubated for another 2 hours. The plates were then read with a Spectramax Gemini XS microplate fluorometer (Molecular Devices, USA) using an excitation wavelength of 536 nm and an emission wavelength of 588 nm. Data was analysed using the software Softmax Pro (Molecular Devices, USA). Decrease of fluorescence ( = inhibition) was expressed as percentage of the fluorescence of control cultures and plotted against the drug concentrations. From the sigmoidal inhibition curves the IC50 values were calculated. Miltefosine served as a known drug control in this assay.

[3] = system: T.b. brucei; assay: Determination of the cidal action of compounds (MIC and parasite counts); format: cell-based, Trypanosoma brucei brucei; conditions: for MIC: Trypanosoma brucei, minimum concentration with plateau of activity (>95%) in Alamar Blue concentration response curve, read-out: minimum inhibitory concentration (MIC); for action cidal or static at the MIC: parasites cleared by 72 hours at MIC; for incubation time at the MIC for complete clearance of T.b. brucei parasites: cell counts at 24, 48 and 72 hours (29 hours from Presto Blue)
Text: The MIC was extrapolated as the minimum concentration at which there was a plateau of activity in the assay (>95% activity).

[4] = system: mammalian cell lines; conditions: cited from earlier work

| Compound | IC50 [1] | IC50 ([1]; Trypanosoma brucei, L6, 70 h) | Selectivity Index T.R [1] | IC50 ([2]; Leishmania donovani, L6, 70 h) | Selectivity Index L.D [2] | MIC [3] | action cidal or static at the MIC [3] | IC50 [2] | population remaining at the MIC, 24 hours ([3]; 24 hours) | population remaining at the MIC, 48 hours ([3]; 48 hours) | incubation time at the MIC for complete clearance of T.b. brucei parasites [3] | activity reported for some mammalian cell lines [4] |
| --- | --- | --- | --- | --- | --- | --- | --- | --- | --- | --- | --- | --- |
| CC(C)(C)C(=O)NCCc1csc(-c2cccc(F)c2)n1 [Compound 1] | 1470 ± 390 nM | 1500 nM | 42 and 42.3 | 46100 ± 22400 nM | 1.35 | 3.97 µM (≈ 1.22 µg/mL) | cidal | – | – | – | – | – |
| O=C(NCCc1n[nH]c(-c2ccc(F)cc2)n1)c1cccc(F)c1 [Compound 2] | 6770 ± 545 nM | 6800 nM | – | 47300 ± 324 nM | 2.53 | 19.8 µM (≈ 6.5 µg/mL) | cidal | – | – | – | – | – |
| CCOc1ccc(OCc2ccc(C(=O)N3CCCC(C)C3)cc2)cc1 (stereo not drawn) [Compound 3] | 854 ± 332 nM | 850 nM | 60 and 58.5 | 16100 ± 1700 nM | 3.09 | – | – | – | – | – | – | – |
| Cc1cc(O)nc(-n2nc(C)cc2NC(=O)C2CCCC2)n1 [Compound 4] | 4850 ± 2080 nM | 4800 nM | 0.19 and 0.186 | 488 ± 154 nM | 1.84 | – | – | – | – | – | – | – |
| CCS(=O)(=O)N1CCCc2ccc(NS(=O)(=O)c3ccccc3F)cc21 [Compound 5] | 14000 nM and 14400 nM | < 10000 nM | – | 6600 ± 1560 nM | 3.29 | – | – | – | – | – | – | – |
| CCC(C)NC(=O)c1nc(-c2ccccc2)cnc1N (stereo not drawn) [Compound 6] | 967 ± 450 nM | 970 nM | 18 and 18.4 | 34000 ± 5600 nM | 0.525 | 9.92 µM (≈ 2.68 µg/mL) | cidal | – | – | – | – | – |
| O=C(Nc1ccc(Cl)c(-c2nc3ncccc3o2)c1)c1ccco1 [Compound 7] | 586 ± 73 nM | 590 nM | – | 1800 nM | – | 0.99 µM (≈ 0.336 µg/mL) | cidal | 1820 ± 277 nM | 0.41% | 0.06% | – | – |
| CCc1ccccc1N=C(NCCN1CCOCC1)NC(=O)c1ccccc1 [Compound 8] | 875 ± 65 nM | 880 nM | 150 | > 263000 nM | – | – | – | – | – | – | – | – |
| N=C(N)c1ccc(OCCCCCOc2ccc(C(=N)N)cc2)cc1 [Pentamidine, pentamidine, reference compound] | – | – | – | – | – | 0.04 µM (≈ 0.0136 µg/mL) | – | – | – | – | 72 h | low µM activity |
| COc1ccc(C[C@H](N)C(=O)N[C@H]2[C@@H](O)[C@H](n3cnc4c(N(C)C)ncnc43)O[C@@H]2CO)cc1 [Puromycin, puromycin, reference compound] | – | – | – | – | – | 1.15 µM (≈ 0.542 µg/mL) | – | – | – | – | 24 h | – |
